Values of other authors in patent US9375525B2, “Modular extracorporeal systems and methods for treating blood-borne diseases” (Somerset Group Enterprises, Inc., priority 2012, dated 2016).
Read-outs that look alike come from different tables or passages of the source.

How the values were obtained:
[1] = system: pathogens; conditions: bactericidal or static
[2] = system: Listeria; conditions: carbonation volume of about 2, about 35° C., pressure up to about 350 MPa, about 300 seconds
[3] = system: S. aureus; conditions: basic conditions versus slightly acidic conditions

| Compound | Issues with Respect to In vivo Toxicity or Side Effects (in vivo) | activity [1] | further results |
| --- | --- | --- | --- |
| NCC[C@H](O)C(=O)N[C@@H]1C[C@H](N)[C@@H](O[C@H]2O[C@H](CN)[C@@H](O)[C@H](O)[C@H]2O)[C@H](O)[C@H]1O[C@H]1O[C@H](CO)[C@@H](O)[C@H](N)[C@H]1O [Amikacin] | Nephrotoxicity, ototoxicity | bactericidal | – |
| O=C=O [CO2, Carbon dioxide] | – | – | inactivation of Listeria [2]: enhanced the inactivation |
| O=C(O)c1cn(C2CC2)c2cc(N3CCNCC3)c(F)cc2c1=O [Ciprofloxalin] | – | bactericidal | – |
| CCCCCCCCCC(=O)N[C@@H](Cc1c[nH]c2ccccc12)C(=O)N[C@H](CC(N)=O)C(=O)N[C@@H](CC(=O)O)C(=O)N[C@@H]1C(=O)NCC(=O)N[C@@H](CCCN)C(=O)N[C@@H](CC(=O)O)C(=O)N[C@H](C)C(=O)N[C@@H](CC(=O)O)C(=O)NCC(=O)N[C@H](CO)C(=O)N[C@@H]([C@H](C)CC(=O)O)C(=O)N[C@@H](CC(=O)c2ccccc2N)C(=O)O[C@@H]1C [Daptomycin] | – | bactericidal | – |
| CN(C)c1cc(NC(=O)CNC(C)(C)C)c(O)c2c1C[C@H]1C[C@H]3[C@H](N(C)C)C(O)=C(C(N)=O)C(=O)[C@@]3(O)C(O)=C1C2=O [Tigecycline] | – | static | – |
| NC[C@H]1O[C@H](O[C@H]2[C@H](O)[C@@H](O[C@H]3O[C@H](CO)[C@@H](O)[C@H](N)[C@H]3O)[C@H](N)C[C@@H]2N)[C@H](N)C[C@@H]1O [Tobramycin] | Nephrotoxicity, ototoxicity | bactericidal | – |
| N[C@@H]1[C@H]2CN(c3nc4c(cc3F)c(=O)c(C(=O)O)cn4-c3ccc(F)cc3F)C[C@@H]12 [Trovafloxacin] | Histamine release, Idiosyncratic | bactericidal | – |
| CN[C@H](CC(C)C)C(=O)N[C@H]1C(=O)N[C@@H](CC(N)=O)C(=O)N[C@H]2C(=O)N[C@H]3C(=O)N[C@H](C(=O)N[C@H](C(=O)O)c4cc(O)cc(O)c4-c4cc3ccc4O)[C@H](O)c3ccc(c(Cl)c3)Oc3cc2cc(c3O[C@@H]2O[C@H](CO)[C@@H](O)[C@H](O)[C@H]2O[C@H]2C[C@](C)(N)[C@H](O)[C@H](C)O2)Oc2ccc(cc2Cl)[C@H]1O [vancomycin] | – | – | killing S. aureus [3]: under basic conditions better than under slightly acidic conditions |
| Colistin | – | bactericidal | Issues with Respect to In vivo Toxicity or Side Effects (in vivo use): Only used as last resort antibiotics |
| Gentamycin | – | bactericidal | Issues with Respect to In vivo Toxicity or Side Effects (in vivo use): Nephrotoxicity, ototoxicity |
| Polymixin B | due to renal and neurotoxicity | bactericidal | – |
